Source: US12077503B2, “Substituted cyclic amides and their use as herbicides” (FMC CORPORATION, priority 2015, dated 2024)

Experiments:
Type in all cases: in vivo
[1] = tested on: barnyardgrass (Echinochloa crus-galli); assay: Test G Post-Emergence Protocol; conditions: Echinochloa crus-galli, post-emergence, 312 h
Summary of the method: (§1)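 Pot-grown seedlings, 8 days old, raised in a glasshouse at 24/16 °C day/night with 14 h light and 65% humidity, were sprayed post-emergence with test compound in acetone/water (50:50) plus 0.5% Tween 20 at 15.625, 62.5 or 250 g/ha. Damage was scored visually 13 days later on a 0–100 scale (100 = total damage).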

corn (Zea mays) [2] = assay: Test G Post-Emergence Protocol; conditions: Zea mays, post-emergence, 312 h
Summary of the method: as §1

[3] = tested on: giant foxtail (Setaria faberi); assay: Test G Post-Emergence Protocol; conditions: Setaria faberi, post-emergence, 312 h
Summary of the method: as §1

[4] = tested on: ivy-leaved morning glory (Ipomoea hederacea); assay: Test G Post-Emergence Protocol; conditions: Ipomoea, post-emergence, 312 h
Summary of the method: as §1

[5] = tested on: redroot pigweed (Amaranthus retroflexus); assay: Test G Post-Emergence Protocol; conditions: Amaranthus retroflexus, post-emergence, 312 h
Summary of the method: as §1

[6] = tested on: velvetleaf (Abutilon theophrasti); assay: Test G Post-Emergence Protocol; conditions: Abutilon theophrasti, post-emergence, 312 h
Summary of the method: as §1

corn (Zea mays) [7] = assay: Test A preemergence; conditions: Zea mays, pre-emergence, 240 h, 0 to 100 scale (0 no effect, 100 complete control); for Corn plant response rating (crop injury, 0 = no effect, 100 = complete kill) at 500 g/ha: 500 g ai/ha, preemergence; for Corn plant response rating (crop injury, 0 = no effect, 100 = complete kill) at 125 g/ha: Preemergence, 125 g ai/ha
Summary of the method: (§2)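 Seeded soil received test chemicals as a preemergence directed spray, and seedlings at one to two leaves, 2–10 cm tall, received them postemergence, in a non-phytotoxic, surfactant-containing solvent mixture. Pots were held in a greenhouse for approximately 10 d, then rated for injury from 0, no effect, to 100, complete control.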

[8] = tested on: crabgrass, large (Digitaria sanguinalis); assay: Test A preemergence; conditions: Digitaria sanguinalis, pre-emergence, 240 h, 0 to 100 scale (0 no effect, 100 complete control), read-out: Plant response rating, Crabgrass, Large; for pest or weed control at 500 g/ha: 500 g ai/ha, preemergence; for pest or weed control at 125 g/ha: Preemergence, 125 g ai/ha
Summary of the method: as §2

[9] = tested on: morningglory (Ipomoea spp.); assay: Test A preemergence; conditions: Ipomoea, pre-emergence, 240 h, 0 to 100 scale (0 no effect, 100 complete control), read-out: Plant response rating, Morningglory; for pest or weed control at 500 g/ha: 500 g ai/ha, preemergence; for pest or weed control at 125 g/ha: Preemergence, 125 g ai/ha
Summary of the method: as §2

[10] = tested on: velvetleaf (Abutilon theophrasti); assay: Test A preemergence; conditions: Abutilon theophrasti, pre-emergence, 240 h, 0 to 100 scale (0 no effect, 100 complete control), read-out: Plant response rating, Velvetleaf; for pest or weed control at 500 g/ha: 500 g ai/ha, preemergence; for pest or weed control at 125 g/ha: Preemergence, 125 g ai/ha
Summary of the method: as §2

[11] = tested on: wheat (Triticum aestivum); assay: Test A preemergence; conditions: Triticum aestivum, pre-emergence, 240 h, 0 to 100 scale (0 no effect, 100 complete control), read-out: Plant response rating, Wheat; for plant injury at 500 g/ha: 500 g ai/ha, preemergence; for plant injury at 125 g/ha: Preemergence, 125 g ai/ha
Summary of the method: as §2

[12] = tested on: crabgrass, large (Digitaria sanguinalis); assay: Test A postemergence; conditions: Digitaria sanguinalis, post-emergence, 240 h, Postemergence; for pest or weed control at 125 g/ha: 125 g ai/ha, visual rating about 10 d after treatment, read-out: Crabgrass, Large plant response rating (0 to 100 scale); for pest or weed control at 500 g/ha: 500 g ai/ha, visual injury, 0 to 100 scale (0 no effect, 100 complete control), approx. 10 d, read-out: Plant response rating, Crabgrass, Large
Summary of the method: as §2

[13] = tested on: morningglory (Ipomoea spp.); assay: Test A postemergence; conditions: Ipomoea, post-emergence, 240 h, Postemergence; for pest or weed control at 125 g/ha: 125 g ai/ha, visual rating about 10 d after treatment, read-out: Morningglory plant response rating (0 to 100 scale); for pest or weed control at 500 g/ha: 500 g ai/ha, visual injury, 0 to 100 scale (0 no effect, 100 complete control), approx. 10 d, read-out: Plant response rating, Morningglory
Summary of the method: as §2

[14] = tested on: velvetleaf (Abutilon theophrasti); assay: Test A postemergence; conditions: Abutilon theophrasti, post-emergence, 240 h, Postemergence; for pest or weed control at 125 g/ha: 125 g ai/ha, visual rating about 10 d after treatment, read-out: Velvetleaf plant response rating (0 to 100 scale); for pest or weed control at 500 g/ha: 500 g ai/ha, visual injury, 0 to 100 scale (0 no effect, 100 complete control), approx. 10 d, read-out: Plant response rating, Velvetleaf
Summary of the method: as §2

CN1C[C@@H](c2ccc(C(F)(F)F)cc2)[C@H](C(=O)Nc2ccc(C(F)(F)F)nc2Cl)C1=O (racemic) [Compound 1542]
0%: pest or weed control at 15.625 g/ha ([1]; 15.625 g ai/ha, evaluated after 13 days (100=total damage to plant; 0=no damage to plant), read-out: Barnyardgrass damage rating) | pest or weed control at 62.5 g/ha ([1]; 62.5 g ai/ha, evaluated after 13 days, read-out: Barnyardgrass damage rating (100=total damage to plant; 0=no damage to plant)) | pest or weed control at 250 g/ha ([1]; 250 g ai/ha, evaluated after 13 days, read-out: damage to plant, Barnyardgrass (100=total damage to plant; 0=no damage to plant)) | plant injury at 15.625 g/ha (corn (Zea mays) [2]; 15.625 g ai/ha, evaluated after 13 days (100=total damage to plant; 0=no damage to plant), read-out: Corn damage rating) | plant injury at 62.5 g/ha (corn (Zea mays) [2]; 62.5 g ai/ha, evaluated after 13 days, read-out: Corn damage rating (100=total damage to plant; 0=no damage to plant)) | plant injury at 250 g/ha (corn (Zea mays) [2]; 250 g ai/ha, evaluated after 13 days, read-out: damage to plant, Corn (100=total damage to plant; 0=no damage to plant)) | pest or weed control at 15.625 g/ha ([3]; 15.625 g ai/ha, evaluated after 13 days (100=total damage to plant; 0=no damage to plant), read-out: Foxtail, Giant damage rating) | pest or weed control at 62.5 g/ha ([3]; 62.5 g ai/ha, evaluated after 13 days, read-out: Foxtail, Giant damage rating (100=total damage to plant; 0=no damage to plant)) | pest or weed control at 250 g/ha ([3]; 250 g ai/ha, evaluated after 13 days, read-out: damage to plant, Foxtail, Giant (100=total damage to plant; 0=no damage to plant)) | pest or weed control at 15.625 g/ha ([4]; 15.625 g ai/ha, evaluated after 13 days (100=total damage to plant; 0=no damage to plant), read-out: Morningglory, Ivy-leaved damage rating) | pest or weed control at 62.5 g/ha ([4]; 62.5 g ai/ha, evaluated after 13 days, read-out: Morningglory, Ivy-leaved damage rating (100=total damage to plant; 0=no damage to plant)) | pest or weed control at 250 g/ha ([4]; 250 g ai/ha, evaluated after 13 days, read-out: damage to plant, Morningglory, Ivy-leaved (100=total damage to plant; 0=no damage to plant)) | pest or weed control at 15.625 g/ha ([5]; 15.625 g ai/ha, evaluated after 13 days (100=total damage to plant; 0=no damage to plant), read-out: Pigweed, Redroot damage rating) | pest or weed control at 62.5 g/ha ([5]; 62.5 g ai/ha, evaluated after 13 days, read-out: Pigweed, Redroot damage rating (100=total damage to plant; 0=no damage to plant)) | pest or weed control at 250 g/ha ([5]; 250 g ai/ha, evaluated after 13 days, read-out: damage to plant, Pigweed, Redroot (100=total damage to plant; 0=no damage to plant)) | pest or weed control at 15.625 g/ha ([6]; 15.625 g ai/ha, evaluated after 13 days (100=total damage to plant; 0=no damage to plant), read-out: Velvetleaf damage rating) | pest or weed control at 62.5 g/ha ([6]; 62.5 g ai/ha, evaluated after 13 days, read-out: Velvetleaf damage rating (100=total damage to plant; 0=no damage to plant)) | pest or weed control at 250 g/ha ([6]; 250 g ai/ha, evaluated after 13 days, read-out: damage to plant, Velvetleaf (100=total damage to plant; 0=no damage to plant))

N#Cc1ccc(NC(=O)C2C(=O)NCC2c2ccccc2)cc1 (stereo not drawn) [Compound 1355]
0%: Corn plant response rating (crop injury, 0 = no effect, 100 = complete kill) at 500 g/ha (corn (Zea mays) [7]) | Corn plant response rating (crop injury, 0 = no effect, 100 = complete kill) at 125 g/ha (corn (Zea mays) [7]) | pest or weed control at 500 g/ha [8] | pest or weed control at 125 g/ha [8] | pest or weed control at 500 g/ha [9] | pest or weed control at 125 g/ha [9] | pest or weed control at 500 g/ha [10] | pest or weed control at 125 g/ha [10] | plant injury at 500 g/ha [11] | plant injury at 125 g/ha [11] | pest or weed control at 125 g/ha [12] | pest or weed control at 500 g/ha [12] | pest or weed control at 125 g/ha [13] | pest or weed control at 500 g/ha [13] | pest or weed control at 125 g/ha [14] | pest or weed control at 500 g/ha [14]

O=C1NCC(c2ccccc2)C1C(=O)Nc1cccnc1 (stereo not drawn) [Compound 1356]
0%: Corn plant response rating (crop injury, 0 = no effect, 100 = complete kill) at 500 g/ha (corn (Zea mays) [7]) | Corn plant response rating (crop injury, 0 = no effect, 100 = complete kill) at 125 g/ha (corn (Zea mays) [7]) | pest or weed control at 500 g/ha [8] | pest or weed control at 125 g/ha [8] | pest or weed control at 500 g/ha [9] | pest or weed control at 125 g/ha [9] | pest or weed control at 500 g/ha [10] | pest or weed control at 125 g/ha [10] | plant injury at 500 g/ha [11] | plant injury at 125 g/ha [11] | pest or weed control at 125 g/ha [12] | pest or weed control at 500 g/ha [12] | pest or weed control at 125 g/ha [13] | pest or weed control at 500 g/ha [13] | pest or weed control at 125 g/ha [14] | pest or weed control at 500 g/ha [14]

O=C1NCC(c2ccccc2)C1C(=O)Nc1ccccc1Oc1ccccc1 (stereo not drawn) [Compound 1357]
0%: Corn plant response rating (crop injury, 0 = no effect, 100 = complete kill) at 500 g/ha (corn (Zea mays) [7]) | Corn plant response rating (crop injury, 0 = no effect, 100 = complete kill) at 125 g/ha (corn (Zea mays) [7]) | pest or weed control at 500 g/ha [8] | pest or weed control at 125 g/ha [8] | pest or weed control at 500 g/ha [9] | pest or weed control at 125 g/ha [9] | pest or weed control at 500 g/ha [10] | pest or weed control at 125 g/ha [10] | plant injury at 500 g/ha [11] | plant injury at 125 g/ha [11] | pest or weed control at 125 g/ha [12] | pest or weed control at 500 g/ha [12] | pest or weed control at 125 g/ha [13] | pest or weed control at 500 g/ha [13] | pest or weed control at 125 g/ha [14] | pest or weed control at 500 g/ha [14]
